These are literature values, as cited in patent US10611908B2, “Micelles for mucoadhesive drug delivery” (McMaster University, priority 2015, dated 2020).

SMILES strings stand for the structures.

A word on the pKa: it is the pH at which an ionisable group is half protonated. Consider `OB(O)c1ccccc1` [PBA, Phenylboronic acid], for which the pKa is around 8.8.
`C=C(C)C(=O)O` [MAA, methacrylic acid]: the pKa is around 4.6.
